Reference: PubChem BioAssay (NCI)
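All cell lines were grown in 96-well plates and treated with compound for 48 hours. The concentration for 50% growth inhibition is given as GI50. TGI denotes the concentration required for complete inhibition of growth.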

Columns and labels:
Assay in all cases: growth of human tumour cells (NCI), 48 h
NCI-H522 lung = test system: NCI-H522 lung
UO-31 renal = test system: UO-31 renal
OVCAR-4 ovarian = test system: OVCAR-4 ovarian
NCI/ADR-RES ovarian = test system: NCI/ADR-RES ovarian
HL-60(TB) leukemia = test system: HL-60(TB) leukemia
SF-539 CNS = test system: SF-539 CNS
SR leukemia = test system: SR leukemia
HCT-15 colon = test system: HCT-15 colon
PC-3 prostate = test system: PC-3 prostate
U251 CNS = test system: U251 CNS

SMILES: COc1ccc(C(=O)c2cc3c(OC)c(OC)c(OC)cc3[nH]2)cc1
- GI50 (NCI-H522 lung): 1.55 µM
- TGI (NCI-H522 lung): 6.04 µM
- GI50 (UO-31 renal): 6.19 µM
- TGI (UO-31 renal): > 100 µM
- GI50 (OVCAR-4 ovarian): > 100 µM
- TGI (OVCAR-4 ovarian): > 100 µM
- GI50 (NCI/ADR-RES ovarian): 3.2 µM
- TGI (NCI/ADR-RES ovarian): 40.9 µM
- GI50 (HL-60(TB) leukemia): 2.24 µM
- TGI (HL-60(TB) leukemia): 61.8 µM
- GI50 (SF-539 CNS): 4.76 µM
- TGI (SF-539 CNS): > 100 µM
- GI50 (SR leukemia): 0.295 µM
- TGI (SR leukemia): 2.57 µM
- GI50 (HCT-15 colon): 2.23 µM
- TGI (HCT-15 colon): > 100 µM
- GI50 (PC-3 prostate): > 100 µM
- TGI (PC-3 prostate): > 100 µM
- GI50 (U251 CNS): 5.2 µM
- TGI (U251 CNS): > 100 µM

SMILES: O=C(N/N=C/c1ccc([N+](=O)[O-])cc1)c1ccc2nc(-c3ccc(Cl)cc3)[nH]c2c1
- GI50 (NCI-H522 lung): 3.05 µM
- TGI (NCI-H522 lung): 11.7 µM
- GI50 (UO-31 renal): 6.05 µM
- TGI (UO-31 renal): 38.3 µM
- GI50 (OVCAR-4 ovarian): 2.75 µM
- TGI (OVCAR-4 ovarian): 8.64 µM
- GI50 (NCI/ADR-RES ovarian): 12.6 µM
- TGI (NCI/ADR-RES ovarian): > 100 µM
- GI50 (HL-60(TB) leukemia): 0.797 µM
- TGI (HL-60(TB) leukemia): 5.73 µM
- GI50 (SF-539 CNS): 2.73 µM
- TGI (SF-539 CNS): 10.1 µM
- GI50 (SR leukemia): 0.566 µM
- TGI (SR leukemia): 4.87 µM
- GI50 (HCT-15 colon): 2.6 µM
- TGI (HCT-15 colon): 13 µM
- GI50 (PC-3 prostate): 0.42 µM
- TGI (PC-3 prostate): 15.3 µM
- GI50 (U251 CNS): 2.91 µM
- TGI (U251 CNS): 10.8 µM

SMILES: COc1ccc(Cl)cc1NC(=O)C(Br)C(Br)C(=O)O (centres undefined)
- GI50 (NCI-H522 lung): 1.91 µM
- TGI (NCI-H522 lung): 5.45 µM
- GI50 (UO-31 renal): 19.2 µM
- TGI (UO-31 renal): 43.6 µM
- GI50 (OVCAR-4 ovarian): 6.36 µM
- TGI (OVCAR-4 ovarian): 60.6 µM
- GI50 (NCI/ADR-RES ovarian): 3.03 µM
- TGI (NCI/ADR-RES ovarian): 9.26 µM
- GI50 (HL-60(TB) leukemia): 5.61 µM
- TGI (HL-60(TB) leukemia): > 100 µM
- GI50 (SF-539 CNS): 11.5 µM
- TGI (SF-539 CNS): 25.4 µM
- GI50 (SR leukemia): 3.43 µM
- TGI (SR leukemia): > 100 µM
- GI50 (HCT-15 colon): 10.2 µM
- TGI (HCT-15 colon): 32.2 µM
- GI50 (PC-3 prostate): 13.4 µM
- TGI (PC-3 prostate): > 100 µM
- GI50 (U251 CNS): 6.62 µM
- TGI (U251 CNS): 20.9 µM

SMILES: COC(=O)C1(F)C(=O)NC(=O)NC1O (centres undefined)
- TGI (NCI-H522 lung): > 100 µM
- TGI (UO-31 renal): > 100 µM
- TGI (OVCAR-4 ovarian): > 100 µM
- TGI (NCI/ADR-RES ovarian): > 100 µM
- TGI (HL-60(TB) leukemia): > 100 µM
- TGI (SF-539 CNS): > 100 µM
- TGI (SR leukemia): > 100 µM
- TGI (HCT-15 colon): > 100 µM
- TGI (PC-3 prostate): > 100 µM
- TGI (U251 CNS): > 100 µM

SMILES: CN1CCN(Cc2ccc(NC(=O)c3ccc(C#Cc4c(N)ncc5ccc(F)cc45)cc3)cc2C(F)(F)F)CC1
- GI50 (NCI-H522 lung): 0.86 µM
- TGI (NCI-H522 lung): 1.59 µM
- GI50 (UO-31 renal): 0.967 µM
- TGI (UO-31 renal): 2.26 µM
- GI50 (OVCAR-4 ovarian): 1.48 µM
- TGI (OVCAR-4 ovarian): 5.83 µM
- GI50 (NCI/ADR-RES ovarian): 1.08 µM
- TGI (NCI/ADR-RES ovarian): 2.32 µM
- GI50 (HL-60(TB) leukemia): 0.935 µM
- TGI (HL-60(TB) leukemia): 2.62 µM
- TGI (SF-539 CNS): 1.78 µM
- GI50 (SR leukemia): 0.897 µM
- TGI (SR leukemia): 2.32 µM
- GI50 (HCT-15 colon): 0.892 µM
- TGI (HCT-15 colon): 1.74 µM
- GI50 (PC-3 prostate): 0.834 µM
- TGI (PC-3 prostate): 1.61 µM
- GI50 (U251 CNS): 0.851 µM
- TGI (U251 CNS): 1.59 µM

SMILES: O=C(Nc1ccccc1O)c1ccc(Oc2cccc(C(=O)Nc3ccccc3O)c2)cc1
- GI50 (NCI-H522 lung): 1.07 µM
- TGI (NCI-H522 lung): 4.73 µM
- GI50 (UO-31 renal): 1.36 µM
- TGI (UO-31 renal): 6.39 µM
- GI50 (OVCAR-4 ovarian): 2.42 µM
- TGI (OVCAR-4 ovarian): 9.03 µM
- GI50 (NCI/ADR-RES ovarian): 1.5 µM
- TGI (NCI/ADR-RES ovarian): 6.7 µM
- GI50 (HL-60(TB) leukemia): 1.37 µM
- TGI (HL-60(TB) leukemia): 10.4 µM
- GI50 (SF-539 CNS): 1.61 µM
- TGI (SF-539 CNS): 6.3 µM
- GI50 (SR leukemia): 0.56 µM
- TGI (SR leukemia): 11.4 µM
- GI50 (HCT-15 colon): 2.52 µM
- TGI (HCT-15 colon): 12.3 µM
- GI50 (PC-3 prostate): 1.84 µM
- TGI (PC-3 prostate): 10.4 µM
- GI50 (U251 CNS): 2.13 µM
- TGI (U251 CNS): 8.16 µM

SMILES: Cc1ccc2c(O)c(O)cc(NC(C)CCCN)c2n1 (centres undefined)
- GI50 (NCI-H522 lung): 3.15 µM
- TGI (NCI-H522 lung): 9.87 µM
- GI50 (UO-31 renal): 7.77 µM
- TGI (UO-31 renal): 43 µM
- GI50 (OVCAR-4 ovarian): 2.88 µM
- TGI (OVCAR-4 ovarian): 9.88 µM
- GI50 (NCI/ADR-RES ovarian): > 66.9 µM
- TGI (NCI/ADR-RES ovarian): > 100 µM
- GI50 (HL-60(TB) leukemia): 10.7 µM
- TGI (HL-60(TB) leukemia): 37.8 µM
- GI50 (SF-539 CNS): 3.83 µM
- TGI (SF-539 CNS): 17.2 µM
- GI50 (SR leukemia): 30.5 µM
- TGI (SR leukemia): 79.3 µM
- GI50 (HCT-15 colon): > 79.1 µM
- TGI (HCT-15 colon): > 100 µM
- GI50 (PC-3 prostate): 22.9 µM
- TGI (PC-3 prostate): > 66.5 µM
- GI50 (U251 CNS): 3.67 µM
- TGI (U251 CNS): 14.8 µM

SMILES: O=C(Nc1ccc(Cl)cc1)c1cc(-c2ccc(Cl)cc2)c2sc(=O)[nH]c2n1
- GI50 (NCI-H522 lung): 0.408 µM
- TGI (NCI-H522 lung): 3.12 µM
- GI50 (UO-31 renal): 1.59 µM
- TGI (UO-31 renal): 5.36 µM
- GI50 (OVCAR-4 ovarian): 2.02 µM
- TGI (OVCAR-4 ovarian): 9.98 µM
- GI50 (NCI/ADR-RES ovarian): 1.98 µM
- TGI (NCI/ADR-RES ovarian): 7.61 µM
- GI50 (HL-60(TB) leukemia): 1.27 µM
- TGI (HL-60(TB) leukemia): 6.68 µM
- GI50 (SF-539 CNS): 2.43 µM
- TGI (SF-539 CNS): 11.6 µM
- GI50 (SR leukemia): 3.63 µM
- TGI (SR leukemia): > 100 µM
- GI50 (HCT-15 colon): 1.27 µM
- TGI (HCT-15 colon): 9.54 µM
- GI50 (PC-3 prostate): 1.66 µM
- TGI (PC-3 prostate): 12.2 µM
- GI50 (U251 CNS): 1.88 µM
- TGI (U251 CNS): 11.8 µM
